# Measured values: US20220388962A1 (Biohaven Therapeutics Ltd., priority 2019, published 2022)
# Counter-ions that a name gives are not always drawn.
# Target: TDP-43 (Homo sapiens, UniProt Q13148)
# Assay: TDP-43-DNA alpha-screen assay (bt-TAR-32 displacement)
# Type: binding
# Details: bt-TAR-32 0.125 nM, 15 ng/ml TDP-43
# Method: Alpha-screen assay: Displacement of bt-TG6 binding was measured using AlphaScreen technology as previously described (Cassel, J. A. et al., Journal of Biomolecular Screening, 2010, 15, 1099-1106; Cassel, J. A.; Reitz, A. B. et al. The effects of small molecule inhibitors of nucleic acid binding to TDP-43 on TDP-43 metabolism and function. Biochimie, 2012, 94, 1974-1981).
# Test compounds were diluted in assay buffer (25 mM Tris [pH 7.4], 0.1% bovine serum albumin [BSA], 0.1% Triton X-100) at 4× the desired final concentration. Dilutions of test compound (50 to 0.02 μM in half-log dilutions with a no compound control well) were pre-incubated with TDP-43 (5 μl of 60 ng/mL) pre-bound to AlphaScreen® anti-GST acceptor beads (5 μl of 40 μg/mL) in 15 μl volume for 30 minutes at 23° C. with shaking. Assays were initiated by the addition of 5 μl bt-TAR-32 (5′-CTGCTTTTTGCCTGTACTGGGTCTCTGTGGTT-3′) 0.5 nM pre-bound to AlphaScreen® strepavidin donor beads (40 μg/mL). After incubation in the dark at 23° C. for 90 minutes with shaking, the AlphaScreen® signal was measured on a Synergy 2 plate reader (BioTek, Winooski, Vt.). IC50 values were determined from nonlinear regression fits of the data to a Sigmoidal dose response variable slope model in GraphPad Prism. Final assay conditions are 25 mM Tris [pH 7.4], 0.1% bovine serum albumin [BSA], 0.100 Triton X-100, 15 ng/ml TDP-43, 0.125 nM bTAR32, 10 ug/ml […].
# Sequence of TDP-43 (Q13148 whole entry): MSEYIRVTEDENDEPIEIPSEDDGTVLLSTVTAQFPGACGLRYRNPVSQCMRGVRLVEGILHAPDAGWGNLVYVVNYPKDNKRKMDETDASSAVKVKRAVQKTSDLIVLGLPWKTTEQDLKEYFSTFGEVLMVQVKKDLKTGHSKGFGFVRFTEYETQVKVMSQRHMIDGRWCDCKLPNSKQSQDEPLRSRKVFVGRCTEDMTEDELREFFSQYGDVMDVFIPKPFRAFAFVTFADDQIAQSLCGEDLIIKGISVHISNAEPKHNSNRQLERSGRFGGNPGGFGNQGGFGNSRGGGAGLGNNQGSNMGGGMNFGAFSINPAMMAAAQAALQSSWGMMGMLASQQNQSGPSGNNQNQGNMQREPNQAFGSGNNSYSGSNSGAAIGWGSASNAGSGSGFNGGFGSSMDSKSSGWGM
row,SMILES,IC50 [nM]
1,"CN(CCCN)CCCNc1cc(-c2ccc(N3CCNCC3)cc2)nc2ccccc12 [Example 29, N^1-(3-aminopropyl)-N^1-methyl-N^3-(2-(4-(piperazin-1-yl)phenyl)quinolin-4-yl)propane-1,3-diamine]",80
2,"COc1cc2nc(-c3ccc(N4CCNCC4)cc3)cc(N[C@H]3CC[C@H](N)CC3)c2cc1OC [Example 81, (1R,4R)—N^1-(6,7-dimethoxy-2-(4-(piperazin-1-yl)phenyl)quinolin-4-yl)cyclohexane-1,4-diamine]",30
3,NCCCNc1cc(-c2ccc3ncccc3c2)nc2ccccc12 [Example 113],570
4,"COc1cc2nccc(NCCCN(C)CCCN)c2cc1OC [Example 147, N^1-(3-aminopropyl)-N^3-(6,7-dimethoxyquinolin-4-yl)-N^1-methylpropane-1,3-diamine]",840
5,COc1cc2nccc(NCCCN(C)CCCN)c2cc1OC [Example 146],410
6,"COc1ccc(-c2cc(NCCCN(CCCN(C)C)CC3CN(C(=O)OC(C)(C)C)C3)c3ccccc3n2)cc1 [Example 18, tert-Butyl 3-(((3-(dimethylamino)propyl)(3-((2-(4-methoxyphenyl)quinolin-4-yl)amino)propyl)amino)methyl)azetidine-1-carboxylate]",1410
7,"COc1ccc(-c2cc(NCC3CCCN(CCCN4C(=O)c5ccccc5C4=O)C3)c3ccccc3n2)cc1 (stereo not drawn) [Example 65, 2-(3-(3-(((2-(4-Methoxyphenyl)quinolin-4-yl)amino)methyl)piperidin-1-yl)propyl)isoindoline-1,3-dione]",730
8,"COc1ccc(-c2cc(NCCCNc3ccc(-c4nn[nH]n4)cc3)c3ccccc3n2)cc1 [Example 50, N^1-(4-(2H-Tetrazol-5-yl)phenyl)-N^3-(2-(4-methoxyphenyl)quinolin-4-yl) propane-1,3-diamine]",15300
9,COc1cc2c(NCCCN(C)C)ccnc2cc1OCCCN1CCCC1 [Example 144],10
10,"COc1ccc(-c2cc(NCCCN(C)CCCNC(=O)Cc3c(C)c4ccc(N)cc4oc3=O)c3ccccc3n2)cc1 [Example 77, 2-(7-Amino-4-methyl-2-oxo-2H-chromen-3-yl)-N-(3-((3-((2-(4-methoxyphenyl)quinolin-4-yl)amino)propyl)(methyl)amino)propyl)acetamide trihydrochloride]",250
11,COc1ccc2nc(C(F)(F)F)cc(NCCCN(C)C)c2c1 [Example 143],79400
12,"COc1ccc(-c2cc(NCCCNCCc3c[nH]c4cc(OC)ccc34)c3ccccc3n2)cc1 [Example 57, N-(3-(2-(6-Methoxy-1H-indol-3-yl)ethylamino)propyl)-2-(4-methoxyphenyl) quinolin-4-amine]",260
13,"COc1ccc(-c2cc(NCC3CCCN(CCCN)C3)c3ccccc3n2)cc1 (stereo not drawn) [Example 56, N-((1-(3-Aminopropyl)piperidin-3-yl)methyl)-2-(4-methoxyphenyl)quinolin-4-amine]",300
14,COc1cc2nc(-c3ccc(N4CCNCC4)cc3)cc(N[C@H]3C[C@H](N)C3)c2cc1OC [Example 80],20
15,"COc1ccc(-c2cc(NCCCNCC3CCN(C(=O)OC(C)(C)C)CC3)c3ccccc3n2)cc1 [Example 62, tert-Butyl 4-{[(3-{[2-(4-methoxyphenyl)quinolin-4-yl]amino}propyl)amino]methyl}piperidine-1-carboxylate]",1160
16,"COc1ccc(-c2cc(NCCCN3CCN4CCCC4C3)c3ccccc3n2)cc1 (stereo not drawn) [Example 68, N-(3-(Hexahydropyrrolo[1,2-a]pyrazin-2(1H)-yl)propyl)-2-(4-methoxyphenyl)quinolin-4-amine dihydrochloride]",2160
17,"COc1ccc(-c2cc(NCCCN(C)CCCN)c3cc(OC)ccc3n2)cc1 [Example 9, N^1-(3-Aminopropyl)-N^3-(6-methoxy-2-(4-methoxyphenyl)quinolin-4-yl)-N^1-methylpropane-1,3-diamine]",50
18,COc1ccc(-c2cc(NC3CCNCC3)c3ccccc3n2)cc1 [Example 122],1170
19,"COc1ccc(-c2cc(NCCCNCCc3ccccn3)c3ccccc3n2)cc1 [Example 54, N^1-(2-(4-methoxyphenyl)quinolin-4-yl)-N^3-(2-(pyridin-2-yl)ethyl)propane-1,3-diamine hydrochloride]",1920
20,COc1ccc(-c2cc(N[C@H]3CC[C@H](N)CC3)c3cc(OC)c(OC)cc3n2)cc1 [Example 101],170
21,"COc1ccc(-c2cc(NCCCNCCCNc3ccncc3)c3ccccc3n2)cc1 [Example 63, N^1-(2-(4-methoxyphenyl)quinolin-4-yl)-N^3-(3-(pyridin-4-ylamino)propyl)propane-1,3-diamine dihydrochloride]",100
22,NC1CCC(Nc2cc(-c3ccc(N4CCNCC4)cc3)nc3ccccc23)CC1 (stereo not drawn) [Example 90],80
23,CC(C)C(N)C(=O)NC(C(=O)NC(C(=O)N1CCN(c2ccc(-c3cc(NCCCN(C)C)c4ccccc4n3)cc2)CC1)C(C)C)C(C)C (stereo not drawn) [Example 106],240
24,CC(C)C(N)C(=O)NC(C(=O)N1CCN(c2ccc(-c3cc(NCCCN(C)C)c4ccccc4n3)cc2)CC1)C(C)C (stereo not drawn) [Example 111],420
25,Cn1cc(-c2cc(NCCCN)c3ccccc3n2)cn1 [Example 125],1300
26,COc1ccc(-c2cc(NCCCN)c3cc(OC)c(OC)cc3n2)cc1 [Example 109],290
27,NCCCNc1cc(-c2cnn(C3CCNCC3)c2)nc2ccccc12 [Example 96],120
28,COc1ccc(-c2cc(NC3CCN(CCCN)CC3)c3ccccc3n2)cc1 [Example 104],220

# The remaining lines, values ahead:
row,IC50 [nM],SMILES
1,280,"COc1ccc(-c2cc(NCCCN(C)CCCN(C)C)c3ccccc3n2)cc1 [Example 1, N^1-(3-((2-(4-Methoxyphenyl)quinolin-4-yl)amino)propyl)-N^1,N^3,N^3-trimethyl propane-1,3-diamine]"
2,220,"COc1ccc(-c2cc(NCCCN(C)CC3CCN(CC4CC4)CC3)c3ccccc3n2)cc1 [Example 38, N^1-((1-(Cyclopropylmethyl)piperidin-4-yl)methyl)-N^3-(2-(4-methoxyphenyl)quinolin-4-yl)-N^1-methylpropane-1,3-diamine]"
3,1490,"COc1ccc(-c2cc(NCCCN3CCC(CO)CC3)c3ccccc3n2)cc1 [Example 51, (1-(3-((2-(4-Methoxyphenyl)quinolin-4-yl)amino)propyl)piperidin-4-yl) methanol]"
4,930,"COc1ccc(-c2cc(NCCCN3CCC(C(N)=O)CC3)c3ccccc3n2)cc1 [Example 72, 1-(3-((2-(4-Methoxyphenyl)quinolin-4-yl)amino)propyl)piperidine-4-carboxamide dihydrochloride]"
5,170,"CCN(CC)CC(O)CNCCCNc1cc(-c2ccc(OC)cc2)nc2ccccc12 (stereo not drawn) [Example 52, 1-(Diethylamino)-3-((3-((2-(4-methoxyphenyl)quinolin-4-yl)amino)propyl)amino)propan-2-ol dihydrochloride]"
6,6280,"COc1ccc(-c2cc(NCCCN3CCOCC3)c3ccccc3n2)cc1 [Example 76, 2-(4-Methoxyphenyl)-N-(3-morpholinopropyl)quinolin-4-amine]"
7,240,"COc1ccc(-c2cc(NCCCN(C)CCCN3CCCCC3)c3ccccc3n2)cc1 [Example 5, N^1-(2-(4-methoxyphenyl)quinolin-4-yl)-N^3-methyl-N^3-(3-(piperidin-1-yl)propyl)propane-1,3-diamine trihydrochloride]"
8,150,"CN(C)CCCNc1cc(-c2ccc(N3CCNCC3)cc2)nc2ccccc12 [Example 99, N^1,N^1-dimethyl-N3-(2-(4-(piperazin-1-yl)phenyl)quinolin-4-yl)propane-1,3-diamine]"
9,120,"COc1ccc(-c2cc(NCCCN(CCCN(C)C)CC3CCNCC3)c3ccccc3n2)cc1 [Example 21, N^1-(3-((2-(4-Methoxyphenyl)quinolin-4-yl)amino)propyl)-N^3,N^3-dimethyl-N^1-(piperidin-4-ylmethyl)propane-1,3-diamine]"
10,210,"COc1ccc(-c2cc(NCCCN3CC4CCC(N)C4C3)c3ccccc3n2)cc1 (stereo not drawn) [Example 34, N-(3-(4-Aminohexahydrocyclopenta[c]pyrrol-2(1H)-yl)propyl)-2-(4-methoxyphenyl)quinolin-4-amine trihydrochloride]"
11,350,"COc1ccc(-c2cc(NCCCN(C)CC3CCN(C)CC3)c3ccccc3n2)cc1 [Example 30, N^1-(2-(4-methoxyphenyl)quinolin-4-yl)-N^3-methyl-N^3-((1-methylpiperidin-4-yl)methyl)propane-1,3-diamine]"
12,1780,[2H]C([2H])([2H])N(CCCNc1cc(-c2ccc(OC)cc2)nc2ccccc12)C([2H])([2H])[2H] [Example 130]
13,52600,COc1ccc(-c2cc(NCCC(=O)N(C)C)c3ccccc3n2)cc1 [Example 138]
14,150,"COc1ccc(-c2cc(NCCCN(C)CCCN3CCC(O)CC3)c3ccccc3n2)cc1 [Example 26, 1-(3-((3-((2-(4-Methoxyphenyl)quinolin-4-yl)amino)propyl)-methylamino)propyl) piperidin-4-ol]"
